{"source": "patent US20090123956A1", "about": "“Measurement of the oxidants-antioxidants balance in liquids” (Samsung Electronics Co., Ltd., priority 2006, published 2009)", "origin": "cited, not measured here"}
{"details": "change in absorbance at 450 nm (reference 620 or 570 nm) at equivalent molar concentration, uric acid = 1"}
{"smiles": "N[C@@H](CCC(=O)N[C@@H](CS)C(=O)NCC(=O)O)C(=O)O", "note": "[GSH]", "relative activity in compare with uric acid": "about 1"}
{"smiles": "Cc1c(C)c2c(c(C)c1O)CCC(C)(C(=O)O)O2", "note": "(stereo not drawn) [Trolox]", "relative activity in compare with uric acid": "about 1"}
{"smiles": "O=C1O[C@H]([C@@H](O)CO)C(O)=C1O", "note": "[vitamin C]", "relative activity in compare with uric acid": "about 1"}
